Reference: article PMC10714399, “Open Source Antibiotics: Simple Diarylimidazoles Are Potent against Methicillin-Resistant Staphylococcus aureus” (ACS Infectious Diseases, 2023)
Values after ≈ are worked out from the molar mass of the structure shown. Where two headings read alike, the source gives them in different places.

How the values were obtained:
[1] = Human plasma protein binding (PPB); assay type: in vitro ADME; details: human, plasma
[2] = In vitro metabolic stability, human liver microsomes (Monash); assay type: in vitro ADME
Experimental: (§1) The metabolic stability assay was performed by incubating each test compound with a suspension of liver microsomes (0.4 mg/mL protein, 1 μM substrate, 37 °C). Microsomes were purchased from XenoTech. The metabolic reaction was initiated by the addition of an NADPH-regenerating system and quenched at various time points over a 60 min incubation by the addition of acetonitrile containing metolazone as an internal standard. Control samples (containing no NADPH) were included (quenched at 2, 30, and 60 min) to monitor for potential degradation in the absence of cofactor. […]
(§2) d) In Vitro Metabolic Stability
(§3) The metabolic stability assay was performed by incubating each test compound with a suspension of liver
(§4) microsomes (0.4 mg/mL, 37°C). The metabolic reaction was initiated by the addition of an NADPH-regenerating
(§5) system and quenched at various time points over a 60 minute incubation by the addition of acetonitrile containing
(§6) metolazone as internal standard. Control samples (containing no NADPH) were included (quenched at 2, 30 and 60
(§7) minutes) to monitor for potential degradation in the absence of cofactor.
(§8) The human liver microsomes used in this experiment were supplied by XenoTech, lot # 1710084.The rat liver
(§9) microsomes used in this experiment were supplied by XenoTech, lot # 1610290. Microsomal incubations were
(§10) performed at a substrate concentration of 1 µM.
(§11) Data analysis and interpretation:
(§12) Substrate depletion as a function of time was analysed as described by Obach (1999) Drug Metab. Dispos., 27:1350-
(§13) 1359. Intrinsic clearance (CLint) values were classified at the limits of low and high clearance bands based on a
(§14) rearrangement of the well stirred model of hepatic elimination. It should be noted that the potential impact of
(§15) compound binding (either in microsomes or in blood) on the relationship between in vitro intrinsic clearance and
(§16) hepatic clearance in vivo has not been accounted for in these studies.
(§17) In Vitro Intrinsic Clearance
(§18) Species (µL/min/mg protein)
(§19) Low Clearance High Clearance
(§20) Experimental results are tabulated on the following page(s).
(§21) (1 picture or pasted object on this page, not shown here)

[3] = In vitro metabolic stability, rat liver microsomes (Monash); assay type: in vitro ADME
Experimental: as §1, §2, §3, §4, §5, §6, §7, §8, §9, §10, §11, §12, §13, §14, §15, §16, §17, §18, §19, §20, §21

[4] = tested on: Staphylococcus aureus NCTC 13373 (mecA-positive; methicillin-resistant); test: In vitro antibacterial activity, MIC (UCL School of Pharmacy assay), MRSA; assay type: cell-based; details: for MIC: Staphylococcus aureus
Procedure, shortened: (§22)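 MIC determined over 32–0.03 μg/mL in 2-fold steps, with at most 2% DMSO, in isosensitest broth. Organisms were suspended in PBS to A600 0.1 (about 1 × 10^8 CFU/mL), diluted 1:100 and inoculated; vancomycin served as QC compound.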

[5] = tested on: Enterococcus faecalis ATCC 51299 (vanA-positive; vancomycin-resistant); test: In vitro antibacterial activity, MIC (UCL), VRE; assay type: cell-based
Procedure, shortened: as §22

[6] = tested on: S. aureus ATCC 25923 (methicillin-susceptible); test: In vitro antibacterial activity, MIC (UCL), MSSA; assay type: cell-based, Staphylococcus aureus; details: Staphylococcus aureus
Procedure, shortened: as §22

Aqueous solubility = assay type: physicochemical; details: for solubility: thermodynamic from solid
[7] = Kinetic solubility estimation using nephelometry (Monash); assay type: physicochemical; details: for solubility kinetic at 30 min: kinetic from dmso stock
Experimental: Compound in DMSO was spiked into either pH 6.5 phosphate buffer or 0.01 M HCl (approximately pH 2.0) with the final DMSO concentration being 1%. […]
b) Kinetic Solubility Estimation using Nephelometry (SolpH)
Compound in DMSO was spiked into either pH 6.5 phosphate buffer or 0.01 M HCl (approx pH 2.0) with the final
DMSO concentration being 1%. After 30 minutes had elapsed, samples were then analysed via Nephelometry to
determine a solubility range. See Bevan and Lloyd (2000) Anal Chem, 72:1781-1787. […]
In Vitro Intrinsic Clearance […]
as §20, §21

[8] = NADPH, read-out: CLint, in vitro
[9] = human plasma, NEU, read-out: Human PPB (NEU) (converted)
[10] = 0.01 M HCl, simulated gastric fluid, pH 2.0, read-out: Sol (pH 2.0) (Monash)
[11] = pH 6.5 phosphate buffer, pH 6.5, aqueous buffer, read-out: Sol (pH 6.5) (Monash)

c1ccc(-c2nc3n(c2-c2ccc4sccc4c2)CCC3)nc1 [compound 822]
fraction unbound ([1]; read-out: Human PPB (converted)): 0.023
microsomal CLint at 1 µM [2, 8]: 72 µL/min/mg
half-life at 1 µM ([2]; NADPH, read-out: T1/2): 24 min
microsomal CLint at 1 µM [3, 8]: 503 µL/min/mg
half-life at 1 µM ([3]; NADPH, read-out: T1/2): 3 min
MRSA MIC [4]: 4 µg/mL
activity against MRSA, in words [4]: MRSA-active
MIC ([4]; 16 h, read-out: MRSA MIC): 2 µg/mL (≈ 6.3 µM)
MIC ([4]; read-out: MRSA MIC): 2 µg/mL (≈ 6.3 µM)
MIC ([5]; read-out: VRE MIC): 8 µg/mL (≈ 25.2 µM)
MIC ([6]; read-out: MSSA MIC): 4 µg/mL (≈ 12.6 µM)
solubility (Aqueous solubility; read-out: Aqueous Solubility): 3 µM (≈ 0.952 µg/mL)
Sol 2.0 ([7]; 0.01 M HCl, approx pH 2.0): 50 to 100 µg/mL
Sol 6.5 ([7]; pH 6.5 phosphate buffer): 12.5 to 25 µg/mL

c1ccc(-c2nc3n(c2-c2ccc4sccc4c2)CCC3)nc1 [OSA_000822]
fraction unbound [1, 9]: 0.023
HLM Clint (Monash) ([2]; Monash): 72 µL/min/mg
HLM t1/2 (Monash) ([2]; Monash): 24 min
RLM Clint (Monash) ([3]; Monash): 503 µL/min/mg
RLM t1/2 (Monash) ([3]; Monash): 3 min
MIC ([4]; UCL, read-out: MRSA MIC (UCL)): 4 µg/mL (≈ 12.6 µM)
MIC ([5]; read-out: VRE MIC (UCL)): 8 µg/mL (≈ 25.2 µM)
MIC ([6]; read-out: MSSA MIC (UCL)): 4 µg/mL (≈ 12.6 µM)
Aqueous Solubility (NEU) (Aqueous solubility; NEU): 3 µM
solubility kinetic at 30 min [7, 10]: 50 to 100 µg/mL (≈ 158 to 315 µM)
solubility kinetic at 30 min [7, 11]: 12.5 to 25 µg/mL (≈ 39.4 to 78.8 µM)

c1ccc(-c2nc3n(c2-c2ccc4occc4c2)CCC3)nc1 [compound 821]
fraction unbound [1, 9]: 0.028
microsomal CLint at 1 µM ([2]; Monash, read-out: HLM Clint (Monash)): 51 µL/min/mg
half-life at 1 µM ([2]; Monash, read-out: HLM t1/2 (Monash)): 34 min
microsomal CLint at 1 µM ([3]; Monash, read-out: RLM Clint (Monash)): 72 µL/min/mg
half-life at 1 µM ([3]; Monash, read-out: RLM t1/2 (Monash)): 24 min
MIC ([4]; 16 h, read-out: MRSA MIC): 4 µg/mL (≈ 13.3 µM)
MIC ([4]; UCL, read-out: MRSA MIC (UCL)): 2 µg/mL (≈ 6.64 µM)
MIC ([4]; read-out: MRSA MIC): 2 µg/mL (≈ 6.64 µM)
MIC ([5]; read-out: VRE MIC): 2 µg/mL (≈ 6.64 µM)
MIC ([6]; read-out: MSSA MIC (UCL)): 2 µg/mL (≈ 6.64 µM)
solubility (Aqueous solubility; NEU, read-out: Aqueous Solubility (NEU)): 117 µM (≈ 35.3 µg/mL)
solubility kinetic at 30 min [7, 10]: > 100 µg/mL
solubility kinetic at 30 min [7, 11]: 25 to 50 µg/mL (≈ 83 to 166 µM)
